Where no end group is shown, it is not given here.
Experiments:
[1] = test system: O=C(Cc1cccs1)N[C@@H]1C(=O)N2C(C(=O)O)=C(/C=C/c3ccc([N+](=O)[O-])cc3[N+](=O)[O-])CS[C@H]12; experiment: Initial rates of nitrocefin hydrolysis by pre-assembled PSMα peptides (170 µM) followed by absorbance at 480 nm in 50 mM Hepes pH 7.4 at 20 °C, non-linear fit to the Michaelis-Menten equation.; assay type: biochemical
Method: Measurements of V0 as function of initial substrate (nitrocefin) concentrations (keeping the PSMα concentration constant at 170 µM, assuring amyloid formation, e.g., above the 30 μM threshold) are depicted in Fig. 2c. […] Table S1 summarizes the pertinent enzymatic parameters extracted from the initial reaction rate data in Fig. 2c using non-linear regression fit to a MM reaction model. Figure 2d presents the catalytic efficiencies, calculated for each peptide by dividing the turnover rate by the MM-constant (Kcat/KM), considered a measure for both substrate binding affinity and conversion kinetics into product.
(§1) Nitrocefin, a β-lactam widely used as a surrogate substrate of Penicillin in β-lactamase activity assay, was used as a substrate. NC degradation was monitored for 2 h. Nitrocefin stock solution was dissolved in acetonitrile (20 mM) and then diluted with Hepes buffer (50 mM, pH 7.4) to nitrocefin concentration of 360 µM (further dilutions to lower concentrations were made with the 360 µM NC stock). All nitrocefin samples were kept on ice in cold conditions and any further dilution or mixing was performed in ice-cold conditions to avoid self-hydrolysis background reaction. 120 µL of the pre-cooled nitrocefin solutions were mixed inside precooled clear 96-well plate (Greiner F-bottom) with 60 µL of pre-incubated PSMα solution (510 µM PSMα, incubated in DIW and later buffered in Hepes 50 mM, pH 7.4). Immediately after mixing the samples, the plate was transferred to 20̊ °C pre-cooled plate reader (Multiskan GO, Thermo Scientific, Waltham, MA) and shaken slowly for 10 s. Then, the absorbance of degraded nitrocefin was measured for 2 h at interval of 20 s at λ = 480 nm. Initial production rates (V0) were calculated by slope of the initial linear range of degraded-nitrocefin production at the first 15 min. The reported results are and average of at least five separate measurements (the exact number of repeats, N, is reported next to the values). Each experiment also included blank samples of nitrocefin substrate diluted with buffer instead of PSMα. All presented results include subtraction of buffer control. The initial rate calculations were performed while also subtracting the self-degradation of the substrate, to ensure that this product absorbance is a result of PSMα presence.
The initial rates of degraded-nitrocefin production were calculated from the slopes of the first 15 min of measurement as reported above. […] The kinetic parameters were calculated by fitting the data to MM model using non-linear regression, and the confidence intervals for each parameter were calculated accordingly. […]
Values derive from the fitting of the initial rates to MM model and are presented as calculated-value ± confidence interval. […]

[2] = Nitrocefin hydrolysis kinetics (absorbance of degraded nitrocefin at 480 nm; initial rates V0, Michaelis-Menten fit); assay type: biochemical; design: Initial nitrocefin-degradation reaction rate, V0: unit not given here; conditions: for initial rate of nitrocefin degradation reaction (V0): peptide 170 µM, initial nitrocefin 107 µM, first 15 min (Fig. 3f); for Initial nitrocefin-degradation reaction rate, V0: Hepes pH 7.4, average of the six runs
Method: as §1, with “120 µL of the pre-cooled nitrocefin solutions were mixed inside precooled clear 96-well plate (Greiner F-bottom) with 60 µL of pre-incubated PSMα solution (510 µM PSMα, incubated in DIW and later buffered in Hepes 50 mM, pH 7.4).” left out, “All presented results include subtraction of buffer control.” left out
The initial rates of degraded-nitrocefin production were calculated from the slopes of the first 15 min of measurement as reported above. The initial rates (V0) were fitted using non-linear regression applied with the solver function in excel, either to Michalis–Menten equation V=Vmax.[S]/(KM+S) Where Vmax. Stands for maximal reaction rate, KM stands for Michalis–Menten constant, [S] stands for the substrate molar concentration. Each initial rate value was presented as average ± SEM. The kinetic parameters were calculated by fitting the data to MM model using non-linear regression, and the confidence intervals for each parameter were calculated accordingly.

[3] = not given; remark: listed apart in the source
[4] = test system: O=C(Cc1cccs1)N[C@@H]1C(=O)N2C(C(=O)O)=C(/C=C/c3ccc([N+](=O)[O-])cc3[N+](=O)[O-])CS[C@H]12; experiment: Source-data fits for PSMα variants (170 µM): initial rates of nitrocefin hydrolysis (up to 240 µM) by absorbance at 480 nm in 50 mM Hepes pH 7.4 at 20 °C.; assay type: biochemical
Method: as §1
The initial rates of degraded-nitrocefin production were calculated from the slopes of the first 15 min of measurement as reported above. […] The kinetic parameters were calculated by fitting the data to MM model using non-linear regression, and the confidence intervals for each parameter were calculated accordingly.

[5] = assay type: biochemical; conditions: Fap 20 µM, nitrocefin 100 µM, A480, ten hours (Fig. S3)
Method: Figure S3. Cross-β bacterial amyloids of Pseudomonas Aeruginosa. Fap B and Fap C were incubated for seven days at 37 °C for fibrillation. Then, upon appearance of typical turbidity the samples were diluted and nitrocefin was added to the samples, creating solutions of 20 µM Fap and nitrocefin in concentration of 100 µM. The absorbance of the nitrocefin was recorded in microplate reader at 480 nm for ten hours, resulting low absorbance relatively to the PSMα at close mass concentration (w/v, 300 µM). This comparison was necessary due to the major differences in sequence length of the Fap proteins and the short PSMα3 peptide. The results are shown as absorbance rather than product concentration due to the slight turbidity of the Fap samples.
(1 picture or pasted object on this page, not shown here)

[6] = AVG of runs, fit of V0 vs NC concentration
[7] = Michaelis-Menten fit of nitrocefin titration, single run, block r246-r259
[8] = Michaelis-Menten fit of nitrocefin titration, single run, block r262-r275
[9] = Michaelis-Menten fit of nitrocefin titration, single run, block r278-r291
[10] = Michaelis-Menten fit of nitrocefin titration, single run, block starting r293

Molecule: PSMα4 (Staphylococcus aureus subsp. aureus MW2)
- Km [1]: 200 µM

Molecule: PSMα1 (Staphylococcus aureus subsp. aureus NCTC 8325)
- Km [1]: 200 µM

Molecule: KNKMFGVALFNFGFKEDLLFLK [α3-scrambled]
- Kcat [2, 6]: 3362023 s⁻¹
- Vmax [2, 6]: 31897124362167 µM/h
- E [1/Ms] (catalytic efficiency) ([2]; AVG of runs, fit of V0 vs nitrocefin (NC) concentration): 0.653 M⁻¹ s⁻¹
- Kcat [2, 7]: 406977 s⁻¹
- Vmax [2, 7]: 249070136309 µM/h
- Kcat [2, 8]: 0.0002595 s⁻¹
- Km [2, 8]: 438 µM
- Vmax [2, 8]: 158.82 µM/h
- Kcat [2, 9]: 0.0002595 s⁻¹
- Km [2, 9]: 438 µM
- Vmax [2, 9]: 158.82 µM/h
- Kcat [2, 10]: 3.556e-05 s⁻¹
- Km [2, 10]: 37.6 µM
- Vmax [2, 10]: 21.76 µM/h
- initial rate of nitrocefin degradation reaction (V0) ([2]; Hepes 50 mM pH 7.4, 20 °C): 21 µM/h
- ATR-FTIR amide-I shoulder: 1680 cm⁻¹
- ATR-FTIR amide-I peak/maximum [3]: 1630 cm⁻¹

Molecule: CSCC[C@H](N)C(=O)N[C@@H](CCC(=O)O)C(=O)N[C@@H](Cc1ccccc1)C(=O)N[C@H](C(=O)N[C@@H](C)C(=O)N[C@@H](CCCCN)C(=O)N[C@@H](CC(C)C)C(=O)N[C@@H](Cc1ccccc1)C(=O)N[C@@H](CCCCN)C(=O)N[C@H](Cc1ccccc1)C(=O)N[C@H](Cc1ccccc1)C(=O)N[C@@H](CCCCN)C(=O)N[C@@H](CC(=O)O)C(=O)N[C@@H](CC(C)C)C(=O)N[C@@H](CC(C)C)C(=O)NCC(=O)N[C@@H](CCCCN)C(=O)N[C@@H](Cc1ccccc1)C(=O)N[C@@H](CC(C)C)C(=O)NCC(=O)N[C@@H](CC(N)=O)C(=O)N[C@@H](CC(N)=O)C(=O)O)C(C)C [α3-(d)FF]
- initial rate of nitrocefin degradation reaction (V0) ([2]; Hepes 50 mM pH 7.4, 20 °C): 30 µM/h
- ATR-FTIR amide-I shoulder: 1630 cm⁻¹
- ATR-FTIR amide-I peak/maximum [3]: 1640 cm⁻¹

Molecule: a3-cationic (Staphylococcus aureus subsp. aureus NCTC 8325; D13N/E2Q)
- Km [4]: 772.188 µM
- Vmax [4]: 8.13 µM/min
- kcat [4]: 0.00116 s⁻¹

Molecule: PSMα2 (Staphylococcus aureus subsp. aureus MW2)
- Km [1]: 230 µM

Molecule: PSMα3 (Staphylococcus aureus subsp. aureus NCTC 8325)
- Km [1]: 80 µM

Molecule: MGIIAGIIKVIKSLIEQFTGK [PSMα1]
- Initial nitrocefin-degradation reaction rate, V0 ([2]; PSMα 4.01424 uM, nitrocefin 60 µM): 0.191
- Initial nitrocefin-degradation reaction rate, V0 ([2]; PSMα 6.02136 uM, nitrocefin 60 µM): -0.01182
- Initial nitrocefin-degradation reaction rate, V0 ([2]; PSMα 9.03205 uM, nitrocefin 60 µM): -0.1032
- Initial nitrocefin-degradation reaction rate, V0 ([2]; PSMα 13.5481 uM, nitrocefin 60 µM): -0.1644
- Initial nitrocefin-degradation reaction rate, V0 ([2]; PSMα 20.3221 uM, nitrocefin 60 µM): -0.2267
- Initial nitrocefin-degradation reaction rate, V0 ([2]; PSMα 30.4832 uM, nitrocefin 60 µM): -0.2129
- Initial nitrocefin-degradation reaction rate, V0 ([2]; PSMα 45.7247 uM, nitrocefin 60 µM): -0.2655
- Initial nitrocefin-degradation reaction rate, V0 ([2]; PSMα 68.5871 uM, nitrocefin 60 µM): -0.7898
- Initial nitrocefin-degradation reaction rate, V0 ([2]; PSMα 102.881 uM, nitrocefin 60 µM): 9.2527
- Initial nitrocefin-degradation reaction rate, V0 ([2]; PSMα 154.321 uM, nitrocefin 60 µM): 10.6002
- Initial nitrocefin-degradation reaction rate, V0 ([2]; PSMα 231.481 uM, nitrocefin 60 µM): 20.6526
- Initial nitrocefin-degradation reaction rate, V0 ([2]; PSMα 347.222 uM, nitrocefin 60 µM): 27.2811
- nitrocefin degradation yield (turnover) ([2]; nitrocefin 60 µM, PSMα assemblies 350 µM, Hepes 50 mM pH 7.4, 20 °C, A480, monitored 2 h (Fig. 2a)): ~ 50%
- ATR-FTIR amide-I peak/maximum [3]: 1650 cm⁻¹

B1: FapB: cross-β Pseudomonas Aeruginosa-originated bacterial amyloid (protein, UniProt Q9I2E9 20-189, looked up)
Functional amyloid subunit …: DPLASRNRASIDDSGTYRGNFALNQAAGDAQQQSNVRVVAVGSAALVGSDQRQHLQLDASQPIAASASISGAALRGSGILGVNQGAGLGNQQINAFRLSLSNGPESLDDSVLAQSVALTKVSGSATPVPGGRSVSTDDRAFAGSSGVVQVNQSAGVGNQSMNTLSVRVME
- nitrocefin degradation by cross-β bacterial amyloids [5]: minor nitrocefin degradation

B2: FapC: cross-β Pseudomonas Aeruginosa-originated bacterial amyloid (protein, UniProt Q9I2F0 25-340, looked up)
Functional amyloid subunit …: GNEGGWHPPKPNPQSNNKGGATALVVDTQQNYNNKVSNFGTLNNASVSGSIKDASGNVGVNVAAGDNNQQANAAALASADASFVFGTATASTSVLQSGYGNTLNNYSNPNTASLSNSANNVSGNLGVNVAAGNFNQQKNDLAAAVSNGQYSTAGSAASQTSTGNTTVNSANYAYGGTYVSLKLNADGSYKGTSDQIGDVYLDTWEGQTHPGGSNTGHIDVDSQAQGAKDLNHDGGAFAFKEKGDVDLKGTVSGFIPAIVGFKTPVTNNASLSNSLQNVSGNVGVNIAAGGGNQQSNSLSIAAGCSSCPAGGESLGF
- nitrocefin degradation by cross-β bacterial amyloids [5]: minor nitrocefin degradation
